Like-named read-outs stand apart in the source and are kept apart here.
Key:
[1] = system: osteoclast precursors (bone marrow hematopoietic cells); assay type: cell-based, SD rats; settings: read-out: IC50 Osteoclastogenesis
[2] = system: VEGF-induced angiogenesis; parameters: species or system C57BL/6 mice; settings: mouse, in vivo
[3] = system: ovariectomized (OVX) rats; settings: rat, in vivo, po, 1.5 mg/kg
Endothelin ETA = target: T1, Endothelin ETA (Homo sapiens, UniProt P25101); assay type: binding
T1 construct: MDS Pharma services, Taipei, Taiwan (contract assay)
T1 sequence (P25101 21-427): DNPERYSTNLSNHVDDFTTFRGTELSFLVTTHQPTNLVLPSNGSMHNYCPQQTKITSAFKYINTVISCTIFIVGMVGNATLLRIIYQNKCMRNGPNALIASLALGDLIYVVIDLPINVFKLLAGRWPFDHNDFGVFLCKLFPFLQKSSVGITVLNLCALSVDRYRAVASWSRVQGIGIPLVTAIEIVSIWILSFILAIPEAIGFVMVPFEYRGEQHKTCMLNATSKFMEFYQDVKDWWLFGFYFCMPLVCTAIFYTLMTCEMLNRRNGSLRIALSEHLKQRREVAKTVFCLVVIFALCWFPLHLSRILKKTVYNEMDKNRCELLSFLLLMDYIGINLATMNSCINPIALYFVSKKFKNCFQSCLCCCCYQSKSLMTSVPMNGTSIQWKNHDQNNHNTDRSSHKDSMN

[4] = mouse, in vivo
TGF-β = assay type: binding
integrin αIIbβ3 = target: T2, integrin αIIbβ3 (Homo sapiens, UniProt P05106+P08514); assay type: cell-based
T2 construct: host or cells: CHO (CHO-αIIbβ3)

Sodium Channel (Site 2) = assay type: binding
osteoarthritis rats = system: osteoarthritis rats; parameters: species or system Sprague-Dawley rats; settings: rat, in vivo
osteoarthritic mice = settings: mouse, in vivo
[5] = system: ovariectomized (OVX) mice; parameters: species or system ICR mice; settings: mouse, in vivo
osteoarthritic rats = settings: rat, in vivo
[6] = system: hypoxic-induced angiogenesis; parameters: species or system mice; settings: mouse, in vivo
[7] = system: human breast cancer MDA-MB-231 cells; settings: mouse, in vivo
Endothelin ETB = target: T3, Endothelin ETB (Homo sapiens, UniProt P24530); assay type: binding
T3 construct: MDS Pharma services, Taipei, Taiwan (contract assay)
T3 sequence (P24530 27-442): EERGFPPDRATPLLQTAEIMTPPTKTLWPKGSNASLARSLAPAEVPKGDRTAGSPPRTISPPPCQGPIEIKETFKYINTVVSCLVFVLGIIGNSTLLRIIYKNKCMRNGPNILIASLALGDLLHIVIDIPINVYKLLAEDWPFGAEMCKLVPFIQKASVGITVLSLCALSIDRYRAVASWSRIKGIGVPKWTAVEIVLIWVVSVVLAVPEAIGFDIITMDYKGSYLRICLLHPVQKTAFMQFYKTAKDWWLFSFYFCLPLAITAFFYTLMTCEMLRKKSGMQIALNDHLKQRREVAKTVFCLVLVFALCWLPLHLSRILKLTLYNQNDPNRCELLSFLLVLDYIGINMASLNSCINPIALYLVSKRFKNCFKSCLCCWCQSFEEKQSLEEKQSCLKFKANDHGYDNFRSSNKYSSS

Calcitonin = target: T4, Calcitonin (Homo sapiens, UniProt P30988); assay type: binding
T4 construct: MDS Pharma services, Taipei, Taiwan (contract assay)
T4 sequence (P30988 25-474): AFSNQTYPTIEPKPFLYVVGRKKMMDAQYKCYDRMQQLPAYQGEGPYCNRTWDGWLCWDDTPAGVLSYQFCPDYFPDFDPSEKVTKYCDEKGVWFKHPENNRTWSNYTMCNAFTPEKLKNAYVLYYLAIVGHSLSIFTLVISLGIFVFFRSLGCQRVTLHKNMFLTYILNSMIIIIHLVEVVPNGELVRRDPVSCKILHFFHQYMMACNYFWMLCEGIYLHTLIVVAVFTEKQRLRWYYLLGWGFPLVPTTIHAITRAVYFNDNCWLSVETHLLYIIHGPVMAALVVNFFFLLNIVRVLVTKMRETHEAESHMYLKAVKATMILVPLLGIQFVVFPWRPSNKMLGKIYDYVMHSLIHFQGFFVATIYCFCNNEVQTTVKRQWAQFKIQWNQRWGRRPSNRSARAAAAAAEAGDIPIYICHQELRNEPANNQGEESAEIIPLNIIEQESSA

RD: rhodostomin variant having a RGD motif variant ^48PRLDMP^53, SEQ ID NO: 36
IC50 [1]: 3.32 nM
hemoglobin content in MATRIGEL plugs [2]: reduced hemoglobin content
inhibition of angiogenesis in MATRIGEL plug [2]: effective in inhibiting angiogenesis
BMC, Femur [3]: 0.441 ± 0.018 g
BMC, Tibia [3]: 0.299 ± 0.011 g
BMD, Femur [3]: 0.135 ± 0.004 g/cm^2
BMD, Tibia [3]: 0.113 ± 0.009 g/cm^2
Bone length, Femur [3]: 3.71 ± 0.06 mm
Bone length, Tibia [3]: 4.01 ± 0.03 mm
Bone volume [3]: 16.3 ± 2.7 %
Wet weight, Femur [3]: 985.3 ± 9.8 mg
Wet weight, Tibia [3]: 749 ± 20.1 mg
ovariectomy-induced increase in osteoclast activity (serum C-terminal telopeptide of type-I collagen) [3]: reversed the ovariectomy-induced increase in osteoclast activity
Inhibition, Endothelin ETA (Endothelin ETA): 26%
effect on tail bleeding (clotting) time [4]: only slightly affected the clotting time
Inhibition, TGF-β (TGF-β): 14%
increase of IC50 in inhibition of integrin αIIbβ3 as compared to Rho (integrin αIIbβ3): more than 104 fold
Inhibition, Sodium Channel (Site 2) (Sodium Channel (Site 2)): 2%
chondrocyte layer destruction in knee joint (osteoarthritis rats): inhibited the chondrocyte layer destruction
osteoarthritis-induced elevation of serum cytokines (c-reactive protein, IL-1, IL-6) (osteoarthritic mice): markedly inhibited the osteoarthritis-induced elevation of cytokines
BMC [5]: 0.582 ± 0.009 g
BMD [5]: 0.085 ± 0.002 g/cm^2
C-terminal telopeptide of COL(1)α1 chain [5]: 533 ± 27.4 ng/mL
BMC ([5]; po, 1.5 mg/kg): 0.627 ± 0.008 g
BMD ([5]; po, 1.5 mg/kg): 0.091 ± 0.001 g/cm^2
C-terminal telopeptide of COL(1)α1 chain ([5]; po, 1.5 mg/kg): 391 ± 8.3 ng/mL
osteoarthritis-induced elevation of serum cytokines (c-reactive protein, IL-1β, IL-6) (osteoarthritic rats): markedly inhibited the osteoarthritis-induced elevation of cytokines
reduction of angiogenesis (blood vessel profiles in the inner retina) compared to vehicle ROP group [6]: about 46%
MDA-MB-231-induced tumor growth in bone [7]: inhibited MDA-MB-231-induced increase in tumor growth in bone
blood counts of RBC, WBC and platelet [7]: did not affect the blood counts of RBC, WBC and platelet
tumor-induced hypercalcemia [7]: prevented
tumor-induced increase in osteoclast activity [7]: prevented the tumor-induced increase in osteoclast activity
Inhibition, Endothelin ETB (Endothelin ETB): 10%
Inhibition, Calcitonin (Calcitonin): 4%
